Measured values reported in ChEMBL document CHEMBL1909046, “DrugMatrix in vitro pharmacology data”.

Legend:
[1] = target: T1, Amine oxidase [flavin-containing] A (Homo sapiens, UniProt P21397); assay: DRUGMATRIX: Monoamine Oxidase MAO-A enzyme inhibition (substrate: Kynuramine); design: species or system BTI-TN-5B1-4; details: bti-tn-5b1-4; Not Active = under 50% inhibition at 10 µM
T1 sequence (P21397 whole entry): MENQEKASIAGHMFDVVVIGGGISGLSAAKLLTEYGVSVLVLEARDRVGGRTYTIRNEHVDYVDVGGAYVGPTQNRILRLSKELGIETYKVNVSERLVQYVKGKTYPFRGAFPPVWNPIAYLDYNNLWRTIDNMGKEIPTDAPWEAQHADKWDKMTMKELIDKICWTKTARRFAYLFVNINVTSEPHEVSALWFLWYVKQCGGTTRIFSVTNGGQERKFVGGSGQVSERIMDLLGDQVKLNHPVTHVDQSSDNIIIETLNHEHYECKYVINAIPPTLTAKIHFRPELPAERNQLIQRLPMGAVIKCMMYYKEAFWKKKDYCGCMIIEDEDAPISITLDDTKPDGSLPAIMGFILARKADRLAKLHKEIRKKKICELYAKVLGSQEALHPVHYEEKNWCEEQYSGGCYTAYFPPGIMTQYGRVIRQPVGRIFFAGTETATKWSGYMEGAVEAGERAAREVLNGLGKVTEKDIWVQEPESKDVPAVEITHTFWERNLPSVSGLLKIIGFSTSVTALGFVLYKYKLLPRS

[2] = target: T2, Alpha-2C adrenergic receptor (Homo sapiens, UniProt P18825); assay: DRUGMATRIX: Adrenergic Alpha-2C radioligand binding (ligand: [3H] MK-912); assay type: cell membranes, Sf9, Membrane; details: sf9
T2 sequence (P18825 whole entry): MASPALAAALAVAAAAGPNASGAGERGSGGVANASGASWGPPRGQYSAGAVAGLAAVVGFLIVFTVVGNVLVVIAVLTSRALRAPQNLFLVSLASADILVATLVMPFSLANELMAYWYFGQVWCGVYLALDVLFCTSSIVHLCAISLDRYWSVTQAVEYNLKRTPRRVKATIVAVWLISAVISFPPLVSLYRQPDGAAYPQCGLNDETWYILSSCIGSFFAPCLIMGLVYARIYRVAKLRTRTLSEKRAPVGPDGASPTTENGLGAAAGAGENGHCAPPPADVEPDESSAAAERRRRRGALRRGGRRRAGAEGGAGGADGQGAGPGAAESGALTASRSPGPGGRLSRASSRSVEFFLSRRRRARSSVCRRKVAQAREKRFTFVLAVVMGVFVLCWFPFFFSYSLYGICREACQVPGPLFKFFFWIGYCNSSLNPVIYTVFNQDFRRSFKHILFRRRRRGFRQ

[3] = DRUGMATRIX: Potassium Channel [KATP] radioligand binding (ligand: [3H] Glyburide); assay type: cell membranes, Membrane; details: hit-t15; Not Active = under 50% inhibition at 10 µM
[4] = target: T3, Neutrophil elastase (Homo sapiens, UniProt P08246); assay type: tissue-based;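 further: inhibition of neutrophil elastase enzyme activity, measured with a p-nitroanilide-linked peptide substrate; in other assays of this panel Not Active means under 50% inhibition at 10 µM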
T3 sequence (P08246 whole entry): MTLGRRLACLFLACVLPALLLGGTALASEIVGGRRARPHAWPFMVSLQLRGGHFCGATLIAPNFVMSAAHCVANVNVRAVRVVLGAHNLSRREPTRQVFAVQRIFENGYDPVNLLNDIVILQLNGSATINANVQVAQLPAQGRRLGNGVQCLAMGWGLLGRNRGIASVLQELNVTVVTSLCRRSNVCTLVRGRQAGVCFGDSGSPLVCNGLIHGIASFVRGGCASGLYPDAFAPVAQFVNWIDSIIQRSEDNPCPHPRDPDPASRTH

[5] = target: Sodium-dependent noradrenaline transporter (Homo sapiens, UniProt P23975); assay: DRUGMATRIX: Norepinephrine Transporter radioligand binding (ligand: [125I] RTI-55); assay type: cell membranes, MDCK, Membrane; details: mdck; Not Active = under 50% inhibition at 10 µM
Sequence of Sodium-dependent noradrenaline transporter (P23975 whole entry): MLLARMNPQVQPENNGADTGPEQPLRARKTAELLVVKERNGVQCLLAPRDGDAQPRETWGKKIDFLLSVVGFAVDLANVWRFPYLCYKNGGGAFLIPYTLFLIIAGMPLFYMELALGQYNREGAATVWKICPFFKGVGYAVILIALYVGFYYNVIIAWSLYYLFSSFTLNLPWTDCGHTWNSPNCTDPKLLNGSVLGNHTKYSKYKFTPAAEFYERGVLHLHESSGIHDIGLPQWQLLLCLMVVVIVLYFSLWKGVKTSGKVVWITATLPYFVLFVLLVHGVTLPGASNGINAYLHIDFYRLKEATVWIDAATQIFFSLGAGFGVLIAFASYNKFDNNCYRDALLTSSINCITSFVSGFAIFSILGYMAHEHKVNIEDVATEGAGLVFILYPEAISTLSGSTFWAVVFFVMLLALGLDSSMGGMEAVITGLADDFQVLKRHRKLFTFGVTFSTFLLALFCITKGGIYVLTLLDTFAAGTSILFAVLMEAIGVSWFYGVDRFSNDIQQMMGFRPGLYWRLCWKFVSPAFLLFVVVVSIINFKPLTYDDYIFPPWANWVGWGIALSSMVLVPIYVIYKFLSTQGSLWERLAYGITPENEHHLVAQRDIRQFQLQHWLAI

[6] = target: T4, C-X-C chemokine receptor type 1 (Homo sapiens, UniProt P25024); further: in other assays of this panel Not Active means under 50% inhibition at 10 µM
T4 sequence (P25024 whole entry): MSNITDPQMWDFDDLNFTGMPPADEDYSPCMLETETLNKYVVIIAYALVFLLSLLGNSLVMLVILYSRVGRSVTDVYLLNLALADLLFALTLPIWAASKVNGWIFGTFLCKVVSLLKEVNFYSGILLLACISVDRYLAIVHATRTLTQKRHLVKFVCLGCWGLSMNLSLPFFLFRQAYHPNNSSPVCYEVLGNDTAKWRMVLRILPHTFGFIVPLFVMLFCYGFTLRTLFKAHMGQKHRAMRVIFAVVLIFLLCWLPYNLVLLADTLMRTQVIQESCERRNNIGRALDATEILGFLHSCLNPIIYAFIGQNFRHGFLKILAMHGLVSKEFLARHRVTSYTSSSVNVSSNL

[7] = target: Tyrosine-protein kinase Lck (Homo sapiens, UniProt P06239); assay: DRUGMATRIX: Protein Tyrosine Kinase, LCK enzyme inhibition (substrate: Poly(Glu:Tyr)); assay type: cell-based, Insect cells; details: insect cells; Not Active = under 50% inhibition at 10 µM
Sequence of Tyrosine-protein kinase Lck (P06239 whole entry): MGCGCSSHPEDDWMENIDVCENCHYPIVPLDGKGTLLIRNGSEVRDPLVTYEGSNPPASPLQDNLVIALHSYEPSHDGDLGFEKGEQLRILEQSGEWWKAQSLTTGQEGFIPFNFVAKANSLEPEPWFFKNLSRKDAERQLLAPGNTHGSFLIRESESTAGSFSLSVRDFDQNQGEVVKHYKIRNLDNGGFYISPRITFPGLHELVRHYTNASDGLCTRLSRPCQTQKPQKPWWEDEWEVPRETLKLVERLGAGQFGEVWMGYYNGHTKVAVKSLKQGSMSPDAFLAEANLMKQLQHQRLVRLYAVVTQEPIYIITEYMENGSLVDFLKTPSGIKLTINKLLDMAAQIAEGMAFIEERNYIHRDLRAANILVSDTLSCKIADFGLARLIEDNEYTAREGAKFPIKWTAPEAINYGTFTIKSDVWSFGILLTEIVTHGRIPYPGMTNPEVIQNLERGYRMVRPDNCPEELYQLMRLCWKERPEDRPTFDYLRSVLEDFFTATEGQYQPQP

[8] = DRUGMATRIX: GABAA, Muscimol, Central radioligand binding (ligand: [3H] Muscimol); assay type: cell membranes, Rattus norvegicus, Wistar, Brain, Membrane; details: Not Active = under 50% inhibition at 10 µM
[9] = target: T5, Thromboxane-A synthase (Homo sapiens, UniProt P24557); assay: biochemical; assay type: tissue-based, Platelet; details: platelet;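 further: enzyme inhibition assay with PGH2 supplied as substrate; in other assays of this panel Not Active means under 50% inhibition at 10 µM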
T5 sequence (P24557 whole entry): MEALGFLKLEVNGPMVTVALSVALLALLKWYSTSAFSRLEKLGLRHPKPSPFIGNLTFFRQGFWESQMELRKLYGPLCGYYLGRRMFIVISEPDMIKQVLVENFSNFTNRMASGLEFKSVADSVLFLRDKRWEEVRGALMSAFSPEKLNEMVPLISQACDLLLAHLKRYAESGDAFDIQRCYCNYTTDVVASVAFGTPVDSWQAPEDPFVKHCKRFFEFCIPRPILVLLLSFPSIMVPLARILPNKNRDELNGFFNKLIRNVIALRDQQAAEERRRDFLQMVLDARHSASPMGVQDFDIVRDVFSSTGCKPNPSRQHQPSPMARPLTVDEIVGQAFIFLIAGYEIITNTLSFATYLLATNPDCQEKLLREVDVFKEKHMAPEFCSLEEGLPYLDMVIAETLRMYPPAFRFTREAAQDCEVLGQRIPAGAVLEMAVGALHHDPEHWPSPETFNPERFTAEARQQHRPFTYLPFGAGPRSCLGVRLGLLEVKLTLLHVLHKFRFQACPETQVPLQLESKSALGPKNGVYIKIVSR

CCCc1cc(=O)[nH]c(=S)[nH]1 [PROPYLTHIOURACIL]
Not Active: IC50 [1] | IC50 [2] | IC50 [3] | Ki [3] | IC50 [4] | IC50 [5] | IC50 [6] | IC50 [7] | IC50 [8] | Ki [8] | IC50 [9]

N#C[C@H](O[C@@H]1O[C@H](CO[C@@H]2O[C@H](CO)[C@@H](O)[C@H](O)[C@H]2O)[C@@H](O)[C@H](O)[C@H]1O)c1ccccc1 [AMYGDALIN]
Not Active: IC50 [1] | IC50 [2] | IC50 [3] | Ki [3] | IC50 [4] | IC50 [5] | IC50 [6] | IC50 [7] | IC50 [8] | Ki [8] | IC50 [9]

O=P1(NCCCl)OCCCN1CCCl (stereo not drawn) [IFOSFAMIDE]
Not Active: IC50 [1] | IC50 [2] | IC50 [3] | Ki [3] | IC50 [4] | IC50 [5] | IC50 [6] | IC50 [7] | IC50 [8] | Ki [8] | IC50 [9]

C=C1CC[C@H](O)C/C1=C/C=C1\CCC[C@]2(C)[C@@H]([C@H](C)/C=C/[C@H](C)C(C)C)CC[C@@H]12 [ERGOCALCIFEROL]
Not Active: IC50 [1] | IC50 [2] | IC50 [3] | Ki [3] | IC50 [4] | IC50 [5] | IC50 [6] | IC50 [7] | IC50 [8] | Ki [8] | IC50 [9]

Cc1ccccc1N1CCN(CCc2nnc3n2CCCC3)CC1 [DAPIPRAZOLE]
Not Active: IC50 [1] | IC50 [2] | IC50 [3] | Ki [3] | IC50 [4] | IC50 [5] | IC50 [6] | IC50 [7] | IC50 [8] | Ki [8] | IC50 [9]

CC=CC(=O)N(CC)c1ccccc1C
Not Active: IC50 [1] | IC50 [2] | IC50 [3] | Ki [3] | IC50 [4] | IC50 [5] | IC50 [6] | IC50 [7] | IC50 [8] | Ki [8] | IC50 [9]

CC[C@@]1(O)C(=O)OCc2c1cc1n(c2=O)Cc2cc3ccccc3nc2-1 [CAMPTOTHECIN]
Not Active: IC50 [1] | IC50 [2] | IC50 [3] | Ki [3] | IC50 [4] | IC50 [5] | IC50 [6] | IC50 [7] | IC50 [8] | Ki [8] | IC50 [9]

CC(=O)O[C@]1(C(C)=O)CC[C@H]2[C@@H]3C=C(Cl)C4=CC(=O)CC[C@]4(C)[C@H]3CC[C@@]21C [CHLORMADINONE ACETATE]
Not Active: IC50 [1] | IC50 [2] | IC50 [3] | Ki [3] | IC50 [4] | IC50 [5] | IC50 [6] | IC50 [7] | IC50 [8] | Ki [8] | IC50 [9]

C[C@]12CCC(=O)C=C1CC[C@@H]1[C@@H]2C(=O)C[C@@]2(C)[C@H]1CC[C@]2(O)C(=O)CO [CORTISONE]
Not Active: IC50 [1] | IC50 [2] | IC50 [3] | Ki [3] | IC50 [4] | IC50 [5] | IC50 [6] | IC50 [7] | IC50 [8] | Ki [8] | IC50 [9]

Brc1ccccc1 [BROMOBENZENE]
Not Active: IC50 [1] | IC50 [2] | IC50 [3] | Ki [3] | IC50 [4] | IC50 [5] | IC50 [6] | IC50 [7] | IC50 [8] | Ki [8] | IC50 [9]

O=C1NC(=O)C(c2ccccc2)(c2ccccc2)N1 [PHENYTOIN]
Not Active: IC50 [1] | IC50 [2] | IC50 [3] | Ki [3] | IC50 [4] | IC50 [5] | IC50 [6] | IC50 [7] | IC50 [8] | Ki [8] | IC50 [9]

C=C(C)[C@@H]1[C@H]2OC(=O)[C@@H]1[C@]1(O)C[C@H]3O[C@]34C(=O)O[C@H]2[C@]14C [PICROTOXININ]
Not Active: IC50 [1] | IC50 [2] | IC50 [3] | Ki [3] | IC50 [4] | IC50 [5] | IC50 [6] | IC50 [7] | IC50 [8] | Ki [8] | IC50 [9]

CC(=O)[C@@]1(O)CC[C@H]2[C@@H]3C[C@H](C)C4=CC(=O)C=C[C@]4(C)[C@@]3(F)[C@@H](O)C[C@@]21C [FLUOROMETHOLONE]
Not Active: IC50 [1] | IC50 [2] | IC50 [3] | Ki [3] | IC50 [4] | IC50 [5] | IC50 [6] | IC50 [7] | IC50 [8] | Ki [8] | IC50 [9]
